In patent US10357486B2, “Treatment of cognitive impairment with PDE4 inhibitor” (Universiteit Maastricht, priority 2013, dated 2019):
Marks after values point to notes of the source that are not given here.

Columns and labels:
[1] = Plasma concentration levels of roflumilast and roflumilast-N-oxide in humans; assay type: in vivo, human
Excerpt: An interim analysis has been performed based on the data of 9 subjects of the Impaired Elderly group and 4 subjects of the Healthy Elderly group. For this purpose, cognitive battery test scores (VLT, SMT, Stroop task and BL-VAS) and concentrations of roflumilast and roflumilast-N-oxide in plasma have been analysed and summarized by dose over each scheduled sampling time using descriptive statistics.

[2] = tested on: phosphodiesterase 4; conditions: after administration of roflumilast; stated as believed; cited from earlier work
[3] = tested on: spatial memory in male C57BL/6NCrl mice; assay: Object Location Task (OLT), 24-hour retention interval; assay type: in vivo; conditions: for d2 index, discrimination index between the new and familiar objects for T2: given 3 hours after T1, T2 after 24 h, mean (SEM)
Excerpt: The objective of this study was to evaluate the cognitive improvement effects of Roflumilast on spatial memory employing Object Location Task (OLT) in male C57BL/6NCrl mice. Roflumilast was compared with data of the already established PDE4 inhibitor Rolipram in the same model.
Maintenance of Animals Twenty-four 7 month-old male C57BL/6NCrl mice (Charles River, L'Arbresle, France) were used (average body weights: 27.6 g). The animals were kept under a 12/12-hour light/dark cycle (lights on from 07.00 pm to 07.00 am) with free access to food and water. All testing was done between 09.00 am and maximally 06.00 pm.
Preparation of Compounds for Administration Both rolipram (Sigma-Aldrich St. Louis, USA; MW 275.34) and roflumilast (Biocrea, Radebeul, Germany; MW 403.21) were dissolved in dimethylsulfoxide (DMSO) and kept at 4 ° C.; this stock solution was used for further dilutions in 0.5% methylcellulose. Each of rolipram and roflumilast is used in form of its free base. All injected solutions consisted of 0.5% methylcellulose with a fixed DMSO percentages (1.2%) (vehicle).
Object Location Task Studies in Rodents For the Object Location Task (OLT), doses of 0.01 mg/kg, 0.03 mg/kg and 0.1 mg/kg of Rolipram or Roflumilast or vehicle were administered subcutaneously (s.c.). Based on previous findings, PDE4 inhibitor single administration was performed 3 hours after the first trial as this has an optimum effect on object memory performance. The injection volume was 5 μl/g.
The OLT apparatus consisted of a circular arena, 40 cm in diameter. Half of the 40 cm transparent polyvinyl chloride wall was covered from the outside with white paper. Two objects were placed symmetrically about 10 cm away from the wall on the separation line, between the transparent and covered side of the arena. Four different sets of objects were available: (1) a cone made of brass (maximal diameter 6 cm and total height 3.8 cm), (2) a transparent glass bottle (diameter 2.7 cm, height 8.5 cm) filled with sand and water, (3) a massive metal cube (2.5 cm×5 cm×7.5 cm) with two holes (diameter 1.5 cm), and (4) a massive aluminum cube with a tapering top (4.5 cm×4.5 cm×8.5 cm).
A testing session comprised two trials of 4 minutes. Before each trial, mice were placed in an empty Makrolon cage (incubation cage) for the same amount of time as the trial (4 min). During the first trial (T1), two identical objects were placed symmetrically about 10 cm away from the wall on the separation line between the transparent and covered side of the arena. After the first exploration period of 4 min, the mouse was put back in its home cage. Mice then received treatment at 3 hours post T1. Subsequently, after a predetermined delay interval (24h), the mouse was placed in the apparatus for the second trial of 4 min (T2). Two identical objects as in T1 were used; one object was placed in the previously used position, whereas the other was placed in a novel position. The novel position of the object could either be a fixed distance towards the front or a fixed distance towards the back of the arena for both objects. The times spent exploring each object during T1 and T2 were recorded manually using a personal computer. All objects and locations were used in a balanced manner to exclude possible object and/or location preferences. To avoid olfactory cues, the objects were thoroughly cleaned with 70% ethanol after each trial. The testing order of conditions was determined randomly.
Statistical Data Analysis The measurements reflected the time spent by the mice in exploring each object during T1 and T2. The time spent in exploring the two identical samples in T1 were represented by ‘a1’ and ‘a2’, respectively. The time spent in exploring the sample and the new object in T2 were represented by ‘a’ and ‘b’, respectively. From these exploration times the following variables were calculated: e1, e2, and d2 (Table 1). The d2 index is a relative measure of discrimination corrected for exploratory activity. […]

[4] = tested on: xylazine/ketamine induced α2-adrenergic receptor-mediated anesthesia; assay: xylazine/ketamine induced α2-adrenergic receptor-mediated anesthesia test (emetic potential); assay type: in vivo; conditions: in vivo, 0.3 mg/kg
Excerpt: Since emesis is a typical side-effect of phosphodiesterase 4 inhibitors the emetic potential of roflumilast and rolipram was investigated in parallel using the xylazine/ketamine induced α2-adrenergic receptor-mediated anesthesia test. The results confirmed that the two phosphodiesterase 4 inhibitors have different effects on emesis.

[5] = tested on: scopolamine induced memory deficit in male Wistar rats; assay: Object recognition task (ORT), scopolamine induced memory deficit; assay type: in vivo; conditions: scopolamine 0.1 mg/kg ip + vehicle
Excerpt: The objective of this study is to evaluate the efficacious dose range of roflumilast with regard to cognitive improvement effects by using scopolamine induced memory deficit on object memory performance in male Wistar rats. Memory acquisition processes are investigated using the object recognition test (ORT).
Maintenance of Animals: Sixteen 3-4 month old male Wistar rats (Charles River, Sulzfeld, Germany) were used for the study. All animals were housed individually in standard green line Tecniplast IVC cages on stardust bedding. The animals were housed on a reversed 12/12 h light/dark cycle (lights on from 07:00 pm to 07:00 am) and had free access to food and water. The rats were housed and tested in the same room. A radio, playing softly, provided background noise in the room. All testing was performed between 09:00 am and 06:00 pm.
Preparation of Compounds: Drugs were prepared daily, except as indicated otherwise. Roflumilast (Takeda, Konstanz, Germany, MW 403.21) was dissolved in 98% methylcellulose solution (0.5% methylcellulose) and 2% Tween 80. Roflumilast in doses of 0 (vehicle), 0.0001, 0.0003, 0.001, 0.003, 0.01 and 0.03 mg/kg was administered intraperitoneally (ip, injection volume 1 ml/kg). Scopolamine (in form of scopolamine hydrobromide) was dissolved in saline (0.9% NaCl). Scopolamine hydrobromide was administered intraperitoneally at a dose of 0.1 mg/kg (ip, injection volume 1 ml/kg). Scopolamine and roflumilast were administered 30 min before T1.
Object Recognition Task in Rats: The ORT was performed as described elsewhere (Ennaceur and Delaceur, 1988, Behav Brain Res, Vol 31, pp 47-59; Akkerman et al; 2012, Behav Brain Res, Vol 232, pp 335-347). The apparatus consisted of a circular arena, 83 cm in diameter. The back half of the 40 cm high wall was made of grey PVC and the front was made of transparent PVC. Fluorescent red tubes and a light bulb provided a constant illumination of about 20 lux on the floor of the apparatus. The light intensity was equal in the different parts of the apparatus.
Two objects were placed in symmetrical positions at the mid-line between the gray and transparent halves of the arena, about ten centimeters away from wall. Four different sets of objects were available: 1) a standard 1 L brown transparent glass bottle (diameter 10 cm, height 22 cm) filled with water, 2) a metal cube (10.0×5.0×7.5 cm) with two holes (diameter 1.9 cm), 3) a cone consisting of a gray PVC base (maximal diameter 18 cm) with a collar on top made of brass (total height 16 cm), and 4) an aluminium cube with a tapering top (13.0×8.0×8.0 cm). Objects were presented to the animals in a balanced manner to avoid object or place biases. Rats were unable to displace the objects.
A test session comprised two trials, each with durations of 3 min. During the learning trial (T1) the apparatus contains two identical objects (object al and a2). Rats were always introduced into the apparatus with their nose towards the transparent wall segment (i.e. facing outwards to the front of the arena). Subsequently, rats were put back in its home cage for a 1 h interval. After the retention interval, rats were put back into the arena for the […] (T2). In T2, the two objects from T1 were replaced by one identical copy (a3) and a different novel object (b). The times spent in exploring each object during T1 and T2 were recorded manually on a personal computer.
Exploration was defined in the following manner: directing the nose to the object at a distance of no more than 2 cm and/or touching the object with the nose. Sitting on the object was not considered as exploratory behavior. In order to avoid the presence of olfactory cues, the objects were thoroughly cleaned with a 70% ethanol solution before each trial.
Prior to compound testing, the animals were handled for 5 min on 2 consecutive days and allowed to explore the ORT arena, also for 5 min. […]

In the case of O=C(Nc1c(Cl)c[n+]([O-])cc1Cl)c1ccc(OC(F)F)c(OCC2CC2)c1 [roflumilast-N-oxide, 3-cyclopropyl-methoxy-4-difluoromethoxy-N-(3,5-dichloro-1-oxypyrid-4-yl)benzamide], the “exposure (concentrations in plasma)” value ([1]; elderly study, interim analysis, 100, 250, 1000 mcg) is listed as “consistent with those previously reported”, the “steady state plasma concentration levels in once a day repeated dosing compared to once a day single dosing” value ([1]; humans, once a day (24 h) regimen) is listed as “about two-fold” and the “share of overall phosphodiesterase 4 inhibition in humans” value [2] is listed as “more than 90%”.

With COc1ccc(C2CNC(=O)C2)cc1OC1CCCC1 (stereo not drawn) [rolipram] the “d2 index, discrimination index between the new and familiar objects for T2” value (“d2 index … for T2” below) ([3]; 0.01 mg/kg s.c.) was 0.08 (0.05), the “d2 index compared with the vehicle condition (post-hoc Bonferroni t-test)” value ([3]; 0.03 mg/kg s.c.) was “differed significantly from the vehicle condition” and the “d2 index … for T2” value ([3]; 0.03 mg/kg s.c.) was 0.13 (0.05) #. The “d2 index compared with zero (one-sample t-test)” value ([3]; 0.03 mg/kg s.c., after twenty-four hours) was “significantly differed from zero”, the “d2 index … for T2” value ([3]; 0.1 mg/kg s.c.) was 0.07 (0.05) and the “effect on spatial memory measured by the object location task test” value ([3]; single subcutaneous administration of 0.03 mg/kg) was “effective”. For the same molecule, the emetic potential [4] was “strong emetic potential”.

For CN1[C@@H]2C[C@@H](OC(=O)[C@H](CO)c3ccccc3)C[C@H]1[C@@H]1O[C@@H]12 [scopolamine], the “d2 value compared to the vehicle condition (post-hoc Bonferroni t-test)” value [5] was “significantly lower” and the “d2 (discrimination index)” value ([5]; 1 h retention, mean (SEM)) was 0.01 (0.08).
